This is an account of results in patent publication US20250313563A1, “GLYCOGEN SYNTHASE KINASE 3 INHIBITORS AND USES THEREOF” (The Broad Institute, Inc., priority 2022, published 2025).

pIC50: −log10 of the molar value. Where two headings read alike, the source gives them in different places.

One series addresses GSK3α (Homo sapiens (Human), UniProt P49840). Description: pThr231 tau phosphorylation plate-based assay in HEK-huTau cells transfected with GSK3α. Particulars: for pIC50: HEK-huTau cells transfected with human GSK3α, 10-point dose response, 2 hours, read-out: GSK3α IC50 (inhibition of pThr231); for selectivity for GSK3α over GSK3β: pThr231 HEK-huTau assay, GSK3β IC50 / GSK3α IC50. It is filed as cell-based. The procedure:
(§1) HEK293 or SH-SY5Y cells were obtained from American Type Culture Collection (ATCC, Manassas, VA) and cultured in Dulbecco's modified Eagle's medium (DMEM) supplemented with 10% fetal bovine serum (FBS), 10 units/ml penicillin, and 10 μg/ml streptomycin (all reagents were purchased from Gibco, Waltham, MA). Cell cultures were maintained in a humidified 5% (v/v) CO2/air environment at 37° C. When the cells reached 50-80% confluence, they were transfected with a complex consisting of a 3:1 ratio of FuGENE 6 Transfection Reagent (Promega, Madison, WI) and plasmid DNA. Plasmid DNA was balanced out across reactions using an empty plasmid so that the same amount of DNA was added per well. This transfection complex was prepared following the manufacturers protocol and added directly to the cell media for 24 or 48 hours prior to lysis.
(§2) 293T cells stably expressing human 2N4R Tau were transfected with appropriate cDNA plasmids. 24 hours following transfection cells were treated with compound in a 10-point dose-response (from 1000× stocks of compound) and lysates harvested 2 hours later with cell extraction buffer (Life Technologies Cat #BN0001) or RIPA Buffer with Halt protease/phosphatase inhibitors added.
(§3) For pThr231 assay: Lysate was diluted 1:100 in assay buffer and Total Tau and pTau T231 was assessed by plate-based ELISA as per manufacturer instructions (MSD Cat #K15121D-1). Total fluorescence was measured using an Envison plate reader.
(§4) To test the potency and isoform selectivity of GSK3 small molecule inhibitors, HEK-huTau cells were transfected with plasmids containing either human GSK3α or GSK3β. Twenty-four hours after transfection, compounds were added at a 10-point dose response curve (at a range of 30 μM-3 nM) for a total of 2 hours, and cell lysates were probed for total tau and pThr231 using a plate-based assay.

Another series deals with human GSK3β (Homo sapiens (Human), UniProt P49841). Description: pThr231 tau phosphorylation plate-based assay in HEK-huTau cells transfected with GSK3β. The series is classed as cell-based. Particulars: for pIC50: HEK-huTau cells transfected with human GSK3β, 10-point dose response, 2 hours, read-out: GSK3β IC50 (inhibition of pThr231). The procedure:
as §1, §2, §3, §4

The target in series [1] is T1, NanoLuc-GSK3α (Homo sapiens (Human), UniProt P49840). Nature of the series: NanoBRET live-cell target engagement assay, GSK3α. It is filed as cell-based. The note with it: HEK293T cells, Tracer-8 at EC50. The procedure: (§5) HEK293T cells were transiently transfected with NanoLuc®-GSK3-alpha or NanoLuc®-GSK3-beta constructs using FuGene®-HD (Promega). Next day, the live cell NanoBRETTM target engagement assay was performed. […] Immediately prior to BRET measurements, NanoBRETTM Nano-Glo® Substrate and Extracellular NanoLuc® Inhibitor were added on cells and incubated for 2-3 minutes at room temperature. Donor emission at 450 nm and acceptor emission at 610 nm were measured using a EnVision plate reader. Raw BRET ratio values were calculated by dividing the acceptor emission value by the donor emission value for each sample. Raw BRET units were converted to milliBRET units (mBU) by multiplying each raw BRET value by 1000. mBU values for compound treatments were normalized to DMSO treatment. Ki values are calculated using the formula: Ki=(IC50)/(1+([Tracer]/EC50)). All experiments were performed as biological triplicates with three technical replications.
(§6) To further characterize the GSK3 inhibitor 837646, this compound was tested in a live-cell target engagement assay to investigate binding mode and residence time. […] In this assay, compound binding was quantified as loss of BRET signal from baseline due to competitive displacement of the tracer. […]
(In BRET a luciferase serves as donor, and the signal depends on an acceptor being close.)

The next series has as its target NanoLuc-GSK3β (Homo sapiens (Human), UniProt P49841). Nature of the series: NanoBRET live-cell target engagement assay, GSK3β. The series is classed as cell-based. The note with it: HEK293T cells, Tracer-8 at EC50. The procedure:
as §5, §6

Series [2] has as its target T1, NanoLuc-GSK3α. Description: NanoBRET residence time, GSK3α. It is filed as cell-based. The note with it: inhibitor at 10× IC50, BRET every 5 min for 3 hours.
In series [3] the test system is β-catenin nuclear translocation in SH-SY5Y cells. Description: β-catenin translocation assay. The series is classed as cell-based. Particulars: for β-catenin nuclear translocation (in words): SH-SY5Y cells. The procedure:
SH-SY5Y cells were seeded into a 96-well CellCarrier Ultra (Perkin Elmer) plate at a density of 1×10^5 cells/ml in complete DMEM. Sixteen hours following plating, media was changed to DMEM with 2% serum, and compound was added with a D300e Digital Dispenser (Tecan) for an incubation time of six hours. After compound incubation, media was removed, and cells were fixed with 4% PFA for 10 minutes at room temperature. Each well was washed three times with PBS-T and then blocked with buffer (1×PBS with 5% Normal Goat Serum and 0.3% Triton X-100) for 30 minutes at room temperature. β-Catenin primary antibody (Cell Signaling #8480) was added at 1:500 dilution in blocking buffer and the cells were allowed to incubate in primary overnight at 4° C. The following day, primary antibody was removed, each well was washed three times with PBS-T, and secondary antibody (1:2000 anti-rabbit AlexaFluor Plus 488 and 1:10,000 Hoechst 33342) was added and allowed to incubate for 60 minutes at room temperature protected from light. After one-hour, secondary antibody was removed and wells were washed four times with PBS-T before imaging on the Opera Phenix. Sixteen fields per well were imaged with a 20× water lens.
Images were quantified in the Columbus Image Data Storage and Analysis software. Cells were identified using the Hoechst nuclear stain to identify individual nuclei. Intensity of the nuclear stain was also used to determine cell viability (Viable cells <30% CV of Hoechst Intensity)

In series [4] the target is GSK3α (GST-full length GSK3α) (Homo sapiens (Human), UniProt P49840). Description: GSK3α TR-FRET kinase assay. It is filed as biochemical. An outline of the steps: (§7)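 Full-length GST-tagged human enzyme (1 nM) is exposed to test compound for 30 min before substrates are added. Phosphorylation of a primed biotinylated glycogen synthase peptide proceeds 100 min at room temperature at low ATP (4 μM α; 2 μM β) or high ATP (1 mM). Product is quantified by TR-FRET.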

The target of series [5] is GSK3b (GST-full length GSK3b) (Homo sapiens (Human), UniProt P49841). Nature of the series: GSK3b TR-FRET kinase assay. It is filed as biochemical. An outline of the steps:
as §7

The mark [6] stands for this setting: 1 nM GSK3α, 4 μM ATP, 30 minute preincubation, Table 16, read-out: GSK3-A TR-FRET BIOCHEMICAL (TR-FRET).
Setting [7] is: 1 nM GSK3b, 2 μM ATP, 30 minute preincubation, Table 16, read-out: GSK3-B TR-FRET BIOCHEMICAL (TR-FRET).

Sequence of GSK3b (GST-full length GSK3b) (P49841 whole entry): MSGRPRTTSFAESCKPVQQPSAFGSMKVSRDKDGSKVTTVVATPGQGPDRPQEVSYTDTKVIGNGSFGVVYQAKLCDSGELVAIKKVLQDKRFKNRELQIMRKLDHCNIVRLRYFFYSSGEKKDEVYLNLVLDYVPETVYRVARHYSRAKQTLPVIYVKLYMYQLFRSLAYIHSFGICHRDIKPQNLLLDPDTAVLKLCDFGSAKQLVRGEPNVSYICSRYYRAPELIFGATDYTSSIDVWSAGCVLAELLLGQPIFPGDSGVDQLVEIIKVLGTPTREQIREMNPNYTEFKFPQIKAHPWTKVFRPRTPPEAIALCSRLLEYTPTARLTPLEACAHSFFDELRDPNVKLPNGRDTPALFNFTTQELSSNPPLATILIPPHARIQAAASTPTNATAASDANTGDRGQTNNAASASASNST
Sequence of human GSK3β (P49841 whole entry): as above
T1 sequence (P49840 whole entry): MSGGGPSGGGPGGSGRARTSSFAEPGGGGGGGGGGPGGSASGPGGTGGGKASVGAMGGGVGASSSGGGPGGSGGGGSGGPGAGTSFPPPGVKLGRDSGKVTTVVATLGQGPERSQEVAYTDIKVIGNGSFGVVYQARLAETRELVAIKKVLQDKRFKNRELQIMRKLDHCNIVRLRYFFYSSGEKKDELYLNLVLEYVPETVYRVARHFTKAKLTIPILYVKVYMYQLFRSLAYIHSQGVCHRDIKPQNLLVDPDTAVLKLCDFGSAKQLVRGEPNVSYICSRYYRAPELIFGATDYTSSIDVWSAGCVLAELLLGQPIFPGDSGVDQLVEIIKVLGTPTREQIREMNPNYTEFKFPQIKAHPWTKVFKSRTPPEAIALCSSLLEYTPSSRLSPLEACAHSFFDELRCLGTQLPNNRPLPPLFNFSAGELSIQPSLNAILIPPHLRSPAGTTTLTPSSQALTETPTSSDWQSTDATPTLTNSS
Sequence of GSK3α (GST-full length GSK3α) (P49840 whole entry): as above
Sequence of GSK3α (P49840 whole entry): as above
Sequence of NanoLuc-GSK3β (P49841 whole entry): as the sequence (P49841 whole entry) above

On to `CCC1(c2cccc(-c3cn(C)nc3C)c2)C2=C(Nc3n[nH]cc31)C(F)C(C)(C)CC2=O` (single isomer, unassigned) [Compound 947651, 4-(3-(1,3-dimethyl-1H-pyrazol-4-yl)phenyl)-4-ethyl-8-fluoro-7,7-dimethyl-2,4,6,7,8,9-hexahydro-5H-pyrazolo[3,4-b]quinolin-5-one], for which the pIC50 on GSK3α is 7.21; on human GSK3β it was 5.85; in series [4] (setting [6]), at least 7.00; in series [4] (GSK3-A (TR-FRET 1 mM ATP), GMean, IC50, 1 mM ATP, geometric mean), at least 7.00; in series [5] (setting [7]), at least 7.00; in series [5] (GSK3-B (TR-FRET 1 mM ATP), GMean, IC50, 1 mM ATP, geometric mean) it was 6.00 to 7.00. For the same compound, at GSK3α, the “selectivity for GSK3α over GSK3β” value came out at 23 fold. For the same compound, the “binding mode (competitive displacement of tracer), GSK3α” value on NanoLuc-GSK3α [1] was “ATP-competitive and direct GSK3 binders”. The “binding mode (competitive displacement of tracer), GSK3β” value on NanoLuc-GSK3β was “ATP-competitive and direct GSK3 binders”. At NanoLuc-GSK3α [2], the “residence time at GSK3α” value is on record as “significantly longer residence times”. The “β-catenin nuclear translocation (in words)” value in series [3] is given as “nuclear translocation of β-catenin occurred at concentrations in which both GSK3 paralogs are being inhibited”.
In the case of `CC[C@@]1(c2ccccc2)C2=C(CC(C)(C)CC2=O)Nc2[nH]ncc21` [BRD0705, reference compound], on human GSK3β (GSK3β IC50 undetermined due to toxicity), the “toxicity of compound in HEK-huTau assay (doses)” value was above 30 µM. The “window between potency on tau phosphorylation by GSK3α and concentrations affecting β-catenin stabilization” value in series [3] (HEK-huTau GSK3α vs SH-SY5Y β-catenin) was above 5 fold.
In the case of `CCC1(c2cccc(-c3c(F)cncc3OC)c2)C2=C(Nc3n[nH]cc31)C(F)C(C)(C)CC2=O` (stereo not drawn) [Compound 948546, 4-ethyl-8-fluoro-4-(3-(3-fluoro-5-methoxypyridin-4-yl)phenyl)-7,7-dimethyl-2,4,6,7,8,9-hexahydro-SH-pyrazolo[3,4-b]quinolin-5-one], the pIC50 at GSK3α was 7.02; at human GSK3β, 6.00; in series [4] (setting [6]), at least 7.00; in series [4] (read-out: GSK3-A (TR-FRET 1 mM ATP), GMean, IC50, 1 mM ATP, geometric mean) it was at least 7.00; in series [5] (setting [7]), at least 7.00; in series [5] (read-out: GSK3-B (TR-FRET 1 mM ATP), GMean, IC50, 1 mM ATP, geometric mean), 6.00 to 7.00. The “selectivity for GSK3α over GSK3β” value on GSK3α is listed as 11 fold. At NanoLuc-GSK3α [1], the “binding mode (competitive displacement of tracer), GSK3α” value is “ATP-competitive and direct GSK3 binders”. Besides, the “binding mode (competitive displacement of tracer), GSK3β” value at NanoLuc-GSK3β is “ATP-competitive and direct GSK3 binders”. For the same compound, the “residence time at GSK3α” value on NanoLuc-GSK3α [2] is reported as “significantly longer residence times”. In addition, in series [3], the “β-catenin nuclear translocation (in words)” value was “nuclear translocation of β-catenin occurred at concentrations in which both GSK3 paralogs are being inhibited”.
